Values after ≈ are worked out from the molar mass of the structure shown.
Assays:
Type in all cases: functional
[1] = system: Staphylococcus aureus; test: Antibacterial activity against methicillin susceptible staphylococcus aureus ATCC 29213 at 10 % serum
[2] = system: Enterococcus faecium; test: Antibacterial activity against Enterococcus faecium ATCC 49452 at 10 % serum; conditions: ATCC 49452, Serum
[3] = system: Enterococcus faecalis; test: Antibacterial activity against Enterococcus faecalis ATCC 6569 at 0 % serum
[4] = system: Staphylococcus aureus; test: Antibacterial activity against methicillin-resistant staphylococcus aureus ATCC 43300 at 0 % serum
[5] = system: Staphylococcus aureus; test: Antibacterial activity against methicillin susceptible staphylococcus aureus ATCC 29213 at 0 % serum
[6] = system: Enterococcus faecalis; test: Antibacterial activity against Enterococcus faecalis ATCC 6569 at 10 % serum; conditions: ATCC 6569, Serum
[7] = system: Enterococcus faecium; test: Antibacterial activity against Enterococcus faecium ATCC 49452 at 0 % serum
[8] = system: Staphylococcus aureus; test: Antibacterial activity against methicillin-resistant staphylococcus aureus ATCC 43300 at 10 % serum

Row | SMILES | MIC [1] | MIC [2] | MIC [3] | MIC [4] | MIC [5] | MIC [6] | MIC [7] | MIC [8]
1 | CCCCCCCCCC(=O)N[C@@H](Cc1c[nH]c2ccccc12)C(=O)N[C@H](CC(N)=O)C(=O)N[C@@H](CCO)C(=O)N[C@@H]1C(=O)NCC(=O)N[C@@H](CCCNCc2ccc(N3CCN(Cc4ccccc4)CC3)cc2)C(=O)N[C@@H](CC(=O)O)C(=O)N[C@H](C)C(=O)N[C@@H](CC(=O)O)C(=O)NCC(=O)N[C@H](CO)C(=O)N[C@@H]([C@H](C)CC(=O)O)C(=O)N[C@@H](CC(=O)c2ccccc2N)C(=O)O[C@@H]1C | 0.78 µg/mL (≈ 0.417 µM) | 25 µg/mL (≈ 13.4 µM) | 6.25 µg/mL (≈ 3.34 µM) | 0.78 µg/mL (≈ 0.417 µM) | 0.78 µg/mL (≈ 0.417 µM) | 12.5 µg/mL (≈ 6.68 µM) | 12.5 µg/mL (≈ 6.68 µM) | 0.78 µg/mL (≈ 0.417 µM)
2 | CCCCCCCCCC(=O)N[C@@H](Cc1c[nH]c2ccccc12)C(=O)N[C@H](CC(N)=O)C(=O)N[C@@H](CCO)C(=O)N[C@@H]1C(=O)NCC(=O)N[C@@H](CCCNCc2cc3ccccc3o2)C(=O)N[C@@H](CC(=O)O)C(=O)N[C@H](C)C(=O)N[C@@H](CC(=O)O)C(=O)NCC(=O)N[C@H](CO)C(=O)N[C@@H]([C@H](C)CC(=O)O)C(=O)N[C@@H](CC(=O)c2ccccc2N)C(=O)O[C@@H]1C | 1.56 µg/mL (≈ 0.898 µM) | 12.5 µg/mL (≈ 7.2 µM) | 3.13 µg/mL (≈ 1.8 µM) | 0.78 µg/mL (≈ 0.449 µM) | 0.78 µg/mL (≈ 0.449 µM) | 6.25 µg/mL (≈ 3.6 µM) | 3.13 µg/mL (≈ 1.8 µM) | 0.78 µg/mL (≈ 0.449 µM)
3 | CCCCCCCCCC(=O)N[C@@H](Cc1c[nH]c2ccccc12)C(=O)N[C@H](CC(N)=O)C(=O)N[C@@H](CCO)C(=O)N[C@@H]1C(=O)NCC(=O)N[C@@H](CCCNCc2cccc(F)c2)C(=O)N[C@@H](CC(=O)O)C(=O)N[C@H](C)C(=O)N[C@@H](CC(=O)O)C(=O)NCC(=O)N[C@H](CO)C(=O)N[C@@H]([C@H](C)CC(=O)O)C(=O)N[C@@H](CC(=O)c2ccccc2N)C(=O)O[C@@H]1C | 1.56 µg/mL (≈ 0.91 µM) | 12.5 µg/mL (≈ 7.29 µM) | 6.25 µg/mL (≈ 3.64 µM) | 0.78 µg/mL (≈ 0.455 µM) | 0.78 µg/mL (≈ 0.455 µM) | 12.5 µg/mL (≈ 7.29 µM) | 12.5 µg/mL (≈ 7.29 µM) | 0.56 µg/mL (≈ 0.327 µM)
4 | CCCCCCCCCC(=O)N[C@@H](Cc1c[nH]c2ccccc12)C(=O)N[C@H](CC(N)=O)C(=O)N[C@@H](CCO)C(=O)N[C@@H]1C(=O)NCC(=O)N[C@@H](CCCNCc2ccc(C#N)cc2)C(=O)N[C@@H](CC(=O)O)C(=O)N[C@H](C)C(=O)N[C@@H](CC(=O)O)C(=O)NCC(=O)N[C@H](CO)C(=O)N[C@@H]([C@H](C)CC(=O)O)C(=O)N[C@@H](CC(=O)c2ccccc2N)C(=O)O[C@@H]1C | 0.78 µg/mL (≈ 0.453 µM) | 12.5 µg/mL (≈ 7.26 µM) | 6.25 µg/mL (≈ 3.63 µM) | 0.78 µg/mL (≈ 0.453 µM) | 0.78 µg/mL (≈ 0.453 µM) | 6.25 µg/mL (≈ 3.63 µM) | 6.25 µg/mL (≈ 3.63 µM) | 0.78 µg/mL (≈ 0.453 µM)
5 | CCCCCCCCCC(=O)N[C@@H](Cc1c[nH]c2ccccc12)C(=O)N[C@H](CC(N)=O)C(=O)N[C@@H](CCO)C(=O)N[C@@H]1C(=O)NCC(=O)N[C@@H](CCCNCc2cccc([N+](=O)[O-])c2)C(=O)N[C@@H](CC(=O)O)C(=O)N[C@H](C)C(=O)N[C@@H](CC(=O)O)C(=O)NCC(=O)N[C@H](CO)C(=O)N[C@@H]([C@H](C)CC(=O)O)C(=O)N[C@@H](CC(=O)c2ccccc2N)C(=O)O[C@@H]1C | 1.56 µg/mL (≈ 0.896 µM) | 12.5 µg/mL (≈ 7.18 µM) | 6.25 µg/mL (≈ 3.59 µM) | 0.78 µg/mL (≈ 0.448 µM) | 0.78 µg/mL (≈ 0.448 µM) | 12.5 µg/mL (≈ 7.18 µM) | 6.25 µg/mL (≈ 3.59 µM) | 1.56 µg/mL (≈ 0.896 µM)
6 | CCCCCCCCCC(=O)N[C@@H](Cc1c[nH]c2ccccc12)C(=O)N[C@H](CC(N)=O)C(=O)N[C@@H](CCO)C(=O)N[C@@H]1C(=O)NCC(=O)N[C@@H](CCCNCc2ccc(C(=O)N3CCN(c4ccc(F)cc4)CC3)cc2)C(=O)N[C@@H](CC(=O)O)C(=O)N[C@H](C)C(=O)N[C@@H](CC(=O)O)C(=O)NCC(=O)N[C@H](CO)C(=O)N[C@@H]([C@H](C)CC(=O)O)C(=O)N[C@@H](CC(=O)c2ccccc2N)C(=O)O[C@@H]1C | 1.56 µg/mL (≈ 0.82 µM) | 6.25 µg/mL (≈ 3.28 µM) | 3.13 µg/mL (≈ 1.64 µM) | 0.78 µg/mL (≈ 0.41 µM) | 0.78 µg/mL (≈ 0.41 µM) | 6.25 µg/mL (≈ 3.28 µM) | 6.25 µg/mL (≈ 3.28 µM) | 0.78 µg/mL (≈ 0.41 µM)
7 | CCCCCCCCCC(=O)N[C@@H](Cc1c[nH]c2ccccc12)C(=O)N[C@H](CC(N)=O)C(=O)N[C@@H](CCO)C(=O)N[C@@H]1C(=O)NCC(=O)N[C@@H](CCCNCc2ccc(S(=O)(=O)N3CCN(c4ccccc4)CC3)cc2)C(=O)N[C@@H](CC(=O)O)C(=O)N[C@H](C)C(=O)N[C@@H](CC(=O)O)C(=O)NCC(=O)N[C@H](CO)C(=O)N[C@@H]([C@H](C)CC(=O)O)C(=O)N[C@@H](CC(=O)c2ccccc2N)C(=O)O[C@@H]1C | 3.13 µg/mL (≈ 1.63 µM) | 12.5 µg/mL (≈ 6.51 µM) | 0.78 µg/mL (≈ 0.406 µM) | 0.78 µg/mL (≈ 0.406 µM) | 0.39 µg/mL (≈ 0.203 µM) | 6.25 µg/mL (≈ 3.25 µM) | 1.56 µg/mL (≈ 0.812 µM) | 0.78 µg/mL (≈ 0.406 µM)
8 | CCCCCCCCCC(=O)N[C@@H](Cc1c[nH]c2ccccc12)C(=O)N[C@H](CC(N)=O)C(=O)N[C@@H](CCO)C(=O)N[C@@H]1C(=O)NCC(=O)N[C@@H](CCCNCc2ccc(/C=C/C(=O)N3CCN(c4ccc(Cl)c(Cl)c4)CC3)cc2)C(=O)N[C@@H](CC(=O)O)C(=O)N[C@H](C)C(=O)N[C@@H](CC(=O)O)C(=O)NCC(=O)N[C@H](CO)C(=O)N[C@@H]([C@H](C)CC(=O)O)C(=O)N[C@@H](CC(=O)c2ccccc2N)C(=O)O[C@@H]1C | 12.5 µg/mL (≈ 6.31 µM) | 50 µg/mL (≈ 25.3 µM) | 1.56 µg/mL (≈ 0.788 µM) | 0.78 µg/mL (≈ 0.394 µM) | 0.78 µg/mL (≈ 0.394 µM) | 50 µg/mL (≈ 25.3 µM) | 1.56 µg/mL (≈ 0.788 µM) | 12.5 µg/mL (≈ 6.31 µM)
9 | CCCCCCCCCC(=O)N[C@@H](Cc1c[nH]c2ccccc12)C(=O)N[C@H](CC(N)=O)C(=O)N[C@@H](CCO)C(=O)N[C@@H]1C(=O)NCC(=O)N[C@@H](CCCNCc2ccc(/C=C/C(=O)N3CCN(c4ccc(F)cc4)CC3)cc2)C(=O)N[C@@H](CC(=O)O)C(=O)N[C@H](C)C(=O)N[C@@H](CC(=O)O)C(=O)NCC(=O)N[C@H](CO)C(=O)N[C@@H]([C@H](C)CC(=O)O)C(=O)N[C@@H](CC(=O)c2ccccc2N)C(=O)O[C@@H]1C | 6.25 µg/mL (≈ 3.24 µM) | 12.5 µg/mL (≈ 6.48 µM) | 1.56 µg/mL (≈ 0.809 µM) | 0.78 µg/mL (≈ 0.404 µM) | 0.39 µg/mL (≈ 0.202 µM) | 12.5 µg/mL (≈ 6.48 µM) | 3.13 µg/mL (≈ 1.62 µM) | 3.13 µg/mL (≈ 1.62 µM)
10 | CCCCCCCCCC(=O)N[C@@H](Cc1c[nH]c2ccccc12)C(=O)N[C@H](CC(N)=O)C(=O)N[C@@H](CCO)C(=O)N[C@@H]1C(=O)NCC(=O)N[C@@H](CCCNCc2ccc(F)cc2F)C(=O)N[C@@H](CC(=O)O)C(=O)N[C@H](C)C(=O)N[C@@H](CC(=O)O)C(=O)NCC(=O)N[C@H](CO)C(=O)N[C@@H]([C@H](C)CC(=O)O)C(=O)N[C@@H](CC(=O)c2ccccc2N)C(=O)O[C@@H]1C | 3.13 µg/mL (≈ 1.81 µM) | 25 µg/mL (≈ 14.4 µM) | 6.25 µg/mL (≈ 3.61 µM) | 0.78 µg/mL (≈ 0.45 µM) | 1.56 µg/mL (≈ 0.9 µM) | 12.5 µg/mL (≈ 7.21 µM) | 6.25 µg/mL (≈ 3.61 µM) | 0.78 µg/mL (≈ 0.45 µM)
11 | CCCCCCCCCC(=O)N[C@@H](Cc1c[nH]c2ccccc12)C(=O)N[C@H](CC(N)=O)C(=O)N[C@@H](CCO)C(=O)N[C@@H]1C(=O)NCC(=O)N[C@@H](CCCNCc2nccs2)C(=O)N[C@@H](CC(=O)O)C(=O)N[C@H](C)C(=O)N[C@@H](CC(=O)O)C(=O)NCC(=O)N[C@H](CO)C(=O)N[C@@H]([C@H](C)CC(=O)O)C(=O)N[C@@H](CC(=O)c2ccccc2N)C(=O)O[C@@H]1C | 1.56 µg/mL (≈ 0.916 µM) | 6.25 µg/mL (≈ 3.67 µM) | 6.25 µg/mL (≈ 3.67 µM) | 0.78 µg/mL (≈ 0.458 µM) | 0.78 µg/mL (≈ 0.458 µM) | 12.5 µg/mL (≈ 7.34 µM) | 6.24 µg/mL (≈ 3.66 µM) | 0.78 µg/mL (≈ 0.458 µM)
12 | CCCCCCCCCC(=O)N[C@@H](Cc1c[nH]c2ccccc12)C(=O)N[C@H](CC(N)=O)C(=O)N[C@@H](CCO)C(=O)N[C@@H]1C(=O)NCC(=O)N[C@@H](CCCNCc2ccc(S(=O)(=O)NCc3ccc(C(F)(F)F)cc3)cc2)C(=O)N[C@@H](CC(=O)O)C(=O)N[C@H](C)C(=O)N[C@@H](CC(=O)O)C(=O)NCC(=O)N[C@H](CO)C(=O)N[C@@H]([C@H](C)CC(=O)O)C(=O)N[C@@H](CC(=O)c2ccccc2N)C(=O)O[C@@H]1C | 3.13 µg/mL (≈ 1.62 µM) | 6.25 µg/mL (≈ 3.23 µM) | 0.78 µg/mL (≈ 0.403 µM) | 0.39 µg/mL (≈ 0.202 µM) | 0.78 µg/mL (≈ 0.403 µM) | 6.25 µg/mL (≈ 3.23 µM) | 0.39 µg/mL (≈ 0.202 µM) | 0.78 µg/mL (≈ 0.403 µM)
13 | CCCCCCCCCC(=O)N[C@@H](Cc1c[nH]c2ccccc12)C(=O)N[C@H](CC(N)=O)C(=O)N[C@@H](CCO)C(=O)N[C@@H]1C(=O)NCC(=O)N[C@@H](CCCNCc2ccccc2F)C(=O)N[C@@H](CC(=O)O)C(=O)N[C@H](C)C(=O)N[C@@H](CC(=O)O)C(=O)NCC(=O)N[C@H](CO)C(=O)N[C@@H]([C@H](C)CC(=O)O)C(=O)N[C@@H](CC(=O)c2ccccc2N)C(=O)O[C@@H]1C | 1.56 µg/mL (≈ 0.91 µM) | 12.5 µg/mL (≈ 7.29 µM) | 6.25 µg/mL (≈ 3.64 µM) | 0.78 µg/mL (≈ 0.455 µM) | 0.78 µg/mL (≈ 0.455 µM) | 12.5 µg/mL (≈ 7.29 µM) | 6.25 µg/mL (≈ 3.64 µM) | 0.78 µg/mL (≈ 0.455 µM)
